Data set [1] concerns Plasmodium falciparum. As to the kind of experiment: Antimalarial activity against asynchronic culture of Plasmodium falciparum NF54 assessed as parasite growth inhibition at 20 ug/mL after 48 hrs by ethidium bromide staining-based spectrofluorometric analysis relative to control. Conditions: NF54, 48 h, read-out: GI. The class given is functional.
The nature of data set [2]: Cytotoxicity against human U937 cells assessed as cell viability after 72 hrs by MTT assay. Particulars: read-out: LC50. The class given is cell-based, U-937. A general note: Tetrazolium dyes change colour on reduction, which living cells bring about.
The subject of data set [3] is Leishmania panamensis. Kind of data set: Antileishmanial activity against amastigote stage of Leishmania panamensis MHOM/CO/87/UA140-EpiR-GFP infected in human U937 cells assessed as parasite growth inhibition at 20 ug/mL after 72 hrs by flow cytometric analysis relative to control. Particulars: MHOM/CO/87/UA140, U-937, 72 h, read-out: GI. The data set is classed as functional. In general terms: A flow cytometer gives signals particle by particle.

The test system of data set [4] is Trypanosoma cruzi. As to the kind of experiment: Antitrypanosomal activity against amastigote stage of Trypanosoma cruzi Tulahuen infected in human U937 cells assessed as parasite growth inhibition at 20 ug/mL after 72 hrs by beta-galactosidase reporter gene assay relative to control. The class given is functional. Conditions: U-937, 72 h, read-out: GI.
Data set [5] is described as follows: Hemolytic activity in human RBC after 48 hrs by spectrophotometric analysis. Conditions: human red blood cells (RBC), read-out: LC50. The class given is ADME, cell-based, Erythrocyte.
Data set [6] relates to Plasmodium falciparum. Kind of data set: Antimalarial activity against asynchronic culture of Plasmodium falciparum NF54 assessed as parasite growth inhibition after 48 hrs by ethidium bromide staining-based spectrofluorometric analysis. The data set is classed as functional, organism-based. Conditions: NF54, 48 h.
Data set [7] deals with Leishmania panamensis. Kind of data set: Antileishmanial activity against amastigote stage of Leishmania panamensis MHOM/CO/87/UA140-EpiR-GFP infected in human U937 cells assessed as parasite growth inhibition after 72 hrs by flow cytometric analysis. The data set is classed as functional, organism-based. Conditions: MHOM/CO/87/UA140, U-937, 72 h.
In data set [8] the test system is Leishmania panamensis. Kind of data set: Antileishmanial activity against amastigote stage of Leishmania panamensis MHOM/CO/87/UA140-EpiR-GFP infected in human U937 cells assessed as parasite growth inhibition at 5 ug/mL after 72 hrs by flow cytometric analysis relative to control. The class given is functional. Particulars: MHOM/CO/87/UA140, U-937, 72 h, read-out: GI.

Data set [9] has as its system Trypanosoma cruzi. As to the kind of experiment: Antitrypanosomal activity against amastigote stage of Trypanosoma cruzi Tulahuen infected in human U937 cells assessed as parasite growth inhibition at 1 ug/mL after 72 hrs by beta-galactosidase reporter gene assay relative to control. The data set is classed as functional. Conditions: U-937, 72 h, read-out: GI. In general terms: Reporter assays use an easily measured gene product as a stand-in for the process of interest.

Values after ≈ are worked out from the molar mass of the structure shown.

What is called IC50 is the concentration at which inhibition is half-maximal. As a reminder, the EC50 is the concentration that produces a half-maximal response.

`COc1ccc(C2=NN(C=O)C(c3ccc(Oc4nc5c(c(=O)n(C)c(=O)n5C)n4C)c(OC)c3)C2)cc1` (centres undefined): the figures for the inhibition of growth at 20 µg/mL in the data set on Plasmodium falciparum [1], in the data set on Leishmania panamensis [3] and with Trypanosoma cruzi [4] were 41.7%, 48.1% and 27%, respectively. Also, the CC50 at 72 h in data set [2] was determined as 38.7 µg/mL (≈ 74.6 µM).

As to `CCN(CC)CCCC(C)Nc1ccnc2cc(Cl)ccc12` (centres undefined) [CHLOROQUINE], the inhibition of growth at 20 µg/mL in the data set on Plasmodium falciparum [1] turned out to be 58.2%.

As for `COc1cc(C2CC(c3ccc(Cl)cc3)=NN2)ccc1Oc1nc2c(c(=O)n(C)c(=O)n2C)n1C` (centres undefined), the inhibition of growth at 20 µg/mL is 23.9% with Plasmodium falciparum [1], 7.7% with Leishmania panamensis [3] and 36.4% in the data set with Trypanosoma cruzi [4]. For the same compound, in [2], the CC50 at 72 h was 34.6 µg/mL (≈ 69.9 µM).

Consider `COc1cc(C2CC(c3ccc(Br)cc3)=NN2)ccc1Oc1nc2c(c(=O)n(C)c(=O)n2C)n1C` (centres undefined), for which the HC50 at 48 h in data set [5] was more than 200 µg/mL. Moreover, the IC50 in the data set with Plasmodium falciparum [6] is 20.8 µg/mL (≈ 38.6 µM). Also, the inhibition of growth at 20 µg/mL is 56.8% in the data set on Plasmodium falciparum [1], 60% with Leishmania panamensis [3] and 0% in the data set with Trypanosoma cruzi [4]. In addition, the CC50 at 72 h in data set [2] was more than 200 µg/mL. In addition, the EC50 in the data set with Leishmania panamensis [7] is 19.5 µg/mL (≈ 36.2 µM).

For the compound `C[C@@H]1[C@H](O)[C@@H](C)/C=C/C=C/C=C/C=C/C=C/C=C/C=C/[C@H](O[C@@H]2O[C@H](C)[C@@H](O)[C@H](N)[C@@H]2O)C[C@@H]2O[C@](O)(C[C@@H](O)C[C@@H](O)[C@H](O)CC[C@@H](O)C[C@@H](O)CC(=O)O[C@H]1C)C[C@H](O)[C@H]2C(=O)O` [AMPHOTERICIN B], the CC50 at 72 h in [2] was 36 µg/mL (≈ 39 µM). Also, the inhibition of growth at 20 µg/mL with Leishmania panamensis [3] was 100%. Also, the EC50 in the data set with Leishmania panamensis [7] is 0.05 µg/mL (≈ 0.0541 µM).

`COc1cc(C2CC(c3ccccc3)=Nc3c(C)nn(-c4ccccc4)c3N2)ccc1Oc1nc2c(c(=O)n(C)c(=O)n2C)n1C` (centres undefined): in [5], the HC50 at 48 h is more than 200 µg/mL. Moreover, the half-inhibitory concentration (IC50) with Plasmodium falciparum [6] is 13.3 µg/mL (≈ 21.6 µM). The results for the inhibition of growth at 20 µg/mL in the data set with Plasmodium falciparum [1], in the data set on Leishmania panamensis [3] and with Trypanosoma cruzi [4] were 85.9%, 0% and 15.7%, respectively. The CC50 at 72 h in [2] is more than 200 µg/mL.

On to `COc1cc(C2CC(c3ccc(C)cc3)=NN2C=O)ccc1Oc1nc2c(c(=O)n(C)c(=O)n2C)n1C` (centres undefined), for which the inhibition of growth at 20 µg/mL in the data set on Plasmodium falciparum [1] was 37.1%; in the data set with Leishmania panamensis [3], 0%; in the data set on Trypanosoma cruzi [4] it was 0%. Moreover, the CC50 at 72 h in data set [2] was more than 200 µg/mL.

On to `COc1cc(C2CC(c3ccc(Cl)cc3)=NN2C=O)ccc1Oc1nc2c(c(=O)n(C)c(=O)n2C)n1C` (centres undefined), for which the inhibition of growth at 20 µg/mL in the data set with Plasmodium falciparum [1] came to 23.9%; with Leishmania panamensis [3] it was 0%; with Trypanosoma cruzi [4] it was 21.1%. For the same compound, the CC50 at 72 h in [2] was more than 200 µg/mL.

For `COc1ccc(C2=NN(C(C)=O)C(c3ccc(Oc4nc5c(c(=O)n(C)c(=O)n5C)n4C)c(OC)c3)C2)cc1` (centres undefined), the inhibition of growth at 20 µg/mL was 11.6% in the data set on Plasmodium falciparum [1], 76.2% in the data set on Leishmania panamensis [3] and 0% in the data set with Trypanosoma cruzi [4]. In [2], the CC50 at 72 h is more than 200 µg/mL. Moreover, the EC50 with Leishmania panamensis [7] came out at 14.6 µg/mL (≈ 27.4 µM).

`COc1cc(C2CC(c3ccccc3)=NN2C(C)=O)ccc1Oc1nc2c(c(=O)n(C)c(=O)n2C)n1C` (centres undefined): in data set [5], the HC50 at 48 h was more than 200 µg/mL. Moreover, the IC50 in the data set with Plasmodium falciparum [6] amounted to 18.4 µg/mL (≈ 36.6 µM). The inhibition of growth at 20 µg/mL with Plasmodium falciparum [1] was determined as 62.5%. The CC50 at 72 h in [2] was determined as 14.8 µg/mL (≈ 29.5 µM). Moreover, in the data set with Leishmania panamensis [8], the inhibition of growth at 5 µg/mL came out at 35.2%. Moreover, the inhibition of growth at 1 µg/mL in the data set on Trypanosoma cruzi [9] turned out to be 0%.

With `COc1cc(/C=C/C(=O)c2ccc(Br)cc2)ccc1Oc1nc2c(c(=O)n(C)c(=O)n2C)n1C`, the inhibition of growth at 20 µg/mL turned out to be 34.3% in the data set on Plasmodium falciparum [1], 50.8% in the data set with Leishmania panamensis [3] and 0% in the data set on Trypanosoma cruzi [4]. Further, in data set [2], the CC50 at 72 h amounted to 96.5 µg/mL (≈ 184 µM).

Consider `COc1cc(C2CC(c3ccc(Br)cc3)=NN2C(C)=O)ccc1Oc1nc2c(c(=O)n(C)c(=O)n2C)n1C` (centres undefined), for which the values for the inhibition of growth at 20 µg/mL with Plasmodium falciparum [1], with Leishmania panamensis [3] and with Trypanosoma cruzi [4] were 44.1%, 82.8% and 24.3%, respectively. In addition, the CC50 at 72 h in data set [2] is 110 µg/mL (≈ 189 µM). Besides, in the data set on Leishmania panamensis [7], the EC50 is 14.3 µg/mL (≈ 24.6 µM).

Consider `COc1cc(C2CC(c3ccc(F)cc3)=Nc3c(C)nn(-c4ccccc4)c3N2)ccc1Oc1nc2c(c(=O)n(C)c(=O)n2C)n1C` (centres undefined), for which the HC50 at 48 h in data set [5] was more than 200 µg/mL. In the data set on Plasmodium falciparum [6], the IC50 amounted to 12.5 µg/mL (≈ 19.7 µM). For the same compound, the inhibition of growth at 20 µg/mL in the data set with Plasmodium falciparum [1] worked out at 91.7%; with Leishmania panamensis [3], 0%; in the data set on Trypanosoma cruzi [4], 23.5%. Moreover, the CC50 at 72 h in data set [2] is more than 200 µg/mL.

For the origin of these results see ChEMBL document CHEMBL3407332, “An efficient synthesis of new caffeine-based chalcones, pyrazolines and pyrazolo[3,4-b][1,4]diazepines as potential antimalarial, antitrypanosomal and antileishmanial agents” (Eur J Med Chem, 2015).
